Assay: xn = mol fraction of the nth substance listed
Settings: 100 kPa, Liquid; for viscosity: Falling or rolling sphere viscometry; for speed of sound: Frequency=3 MHz, Single path-length method; for mass density: Vibrating tube method

C[S+](C)[O-] [dimethyl sulfoxide] + CC#N
Settings | mass density [kg/m3] | speed of sound [m/s] | viscosity [mPa·s]
298.15 K, x1 = 0.0995 | 820.43 | 1299.5 | 0.42
298.15 K, x1 = 0.2061 | 862.88 | 1322.6 | 0.52
298.15 K, x1 = 0.2936 | 896.29 | 1346.2 | 0.57
298.15 K, x1 = 0.4055 | 935.15 | 1372 | 0.72
298.15 K, x1 = 0.5051 | 966.82 | 1395.1 | 0.86
298.15 K, x1 = 0.6001 | 994.77 | 1415.8 | 1.06
298.15 K, x1 = 0.7006 | 1022.53 | 1439.2 | 1.27
298.15 K, x1 = 0.8072 | 1050.32 | 1460.8 | 1.54
298.15 K, x1 = 0.8947 | 1071.95 | 1480.9 | 1.76
298.15 K, x1 = 1 | 1095.62 | 1490.5 | 2.03
303.15 K, x1 = 0.0995 | 815.06 | 1280.1 | 0.4
303.15 K, x1 = 0.2061 | 857.6 | 1303.8 | 0.49
303.15 K, x1 = 0.2936 | 891.05 | 1327.8 | 0.53
303.15 K, x1 = 0.4055 | 929.99 | 1354.1 | 0.67
303.15 K, x1 = 0.5051 | 961.71 | 1377.5 | 0.81
303.15 K, x1 = 0.6001 | 989.72 | 1398.5 | 0.97
303.15 K, x1 = 0.7006 | 1017.55 | 1422.2 | 1.17
303.15 K, x1 = 0.8072 | 1045.34 | 1443.9 | 1.42
303.15 K, x1 = 0.8947 | 1066.98 | 1464 | 1.6
303.15 K, x1 = 1 | 1090.62 | 1473.6 | 1.84
308.15 K, x1 = 0.0995 | 809.67 | 1260.6 | 0.39
308.15 K, x1 = 0.2061 | 852.28 | 1285 | 0.46
308.15 K, x1 = 0.2936 | 885.81 | 1309.9 | 0.52
308.15 K, x1 = 0.4055 | 924.82 | 1336.2 | 0.64
308.15 K, x1 = 0.5051 | 956.58 | 1360 | 0.75
308.15 K, x1 = 0.6001 | 984.67 | 1381.3 | 0.91
308.15 K, x1 = 0.7006 | 1012.57 | 1405.2 | 1.08
308.15 K, x1 = 0.8072 | 1040.36 | 1427 | 1.29
308.15 K, x1 = 0.8947 | 1062.01 | 1447.2 | 1.47
308.15 K, x1 = 1 | 1085.61 | 1456.8 | 1.67
313.15 K, x1 = 0.0995 | 804.26 | 1241.2 | 0.37
313.15 K, x1 = 0.2061 | 846.95 | 1266.1 | 0.44
313.15 K, x1 = 0.2936 | 880.52 | 1291 | 0.49
313.15 K, x1 = 0.4055 | 919.62 | 1318.8 | 0.6
313.15 K, x1 = 0.5051 | 951.43 | 1342.5 | 0.71
313.15 K, x1 = 0.6001 | 979.59 | 1364.1 | 0.85
313.15 K, x1 = 0.7006 | 1007.58 | 1388 | 1
313.15 K, x1 = 0.8072 | 1035.36 | 1410.3 | 1.19
313.15 K, x1 = 0.8947 | 1057.03 | 1431 | 1.35
313.15 K, x1 = 1 | 1080.6 | 1440 | 1.53
318.15 K, x1 = 0.0995 | 798.81 | 1221.8 | 0.35
318.15 K, x1 = 0.2061 | 841.59 | 1247.4 | 0.42
318.15 K, x1 = 0.2936 | 875.23 | 1272.7 | 0.47
318.15 K, x1 = 0.4055 | 914.41 | 1300.5 | 0.57
318.15 K, x1 = 0.5051 | 946.27 | 1325 | 0.67
318.15 K, x1 = 0.6001 | 974.52 | 1346.9 | 0.79
318.15 K, x1 = 0.7006 | 1002.73 | 1371.2 | 0.94
318.15 K, x1 = 0.8072 | 1030.38 | 1393.5 | 1.1
318.15 K, x1 = 0.8947 | 1052.04 | 1413.8 | 1.24
318.15 K, x1 = 1 | 1075.6 | 1423.3 | 1.41
323.15 K, x1 = 0.0995 | 793.34 | 1202.4 | 0.34
323.15 K, x1 = 0.2061 | 836.19 | 1228.6 | 0.4
323.15 K, x1 = 0.2936 | 869.91 | 1254.3 | 0.45
323.15 K, x1 = 0.4055 | 909.18 | 1282.7 | 0.54
323.15 K, x1 = 0.5051 | 941.1 | 1307.6 | 0.63
323.15 K, x1 = 0.6001 | 969.42 | 1329.7 | 0.75
323.15 K, x1 = 0.7006 | 997.71 | 1354.2 | 0.87
323.15 K, x1 = 0.8072 | 1025.37 | 1376.8 | 1.03
323.15 K, x1 = 0.8947 | 1047.05 | 1397.2 | 1.15
323.15 K, x1 = 1 | 1070.66 | 1406.7 | 1.3

Reference: the NIST ThermoML archive (doi:10.1021/acs.jced.7b00429)
